Results taken from ChEMBL document CHEMBL3137667, “[Drug-induced liver injury; fourteenth updated edition of the bibliographic database of liver injuries and related drugs]” (Gastroenterol Clin Biol, 2004).

How the values were obtained:
[1] = Highest frequency of moderate liver toxicity observed during clinical trials, expressed as a percentage. [column '% BIOL' in source]; conditions: human
[2] = human, serum
[3] = human
[4] = human, serum, 4383 h
[5] = human; remark: listed apart in the source
[6] = Highest frequency of acute liver toxicity observed during clinical trials, expressed as a percentage. [column '% AIGUE' in source]; conditions: human
[7] = human; remark: listed apart in the source
[8] = human; remark: listed apart in the source
[9] = human; remark: listed apart in the source
[10] = human; remark: listed apart in the source
[11] = human, serum; remark: listed apart in the source
[12] = human; remark: listed apart in the source
[13] = human; remark: listed apart in the source
[14] = human; remark: listed apart in the source
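For Hepatotoxicity (association with vascular disease) in this document: count of indexed literature references reporting vascular liver injury in humans, e.g. peliosis hepatitis, hepatic veno-occlusive disease or Budd-Chiari syndrome.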
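For Hepatotoxicity (benign tumour) in this document: value is a count of indexed literature references citing a benign tumour confirmed by histopathology.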
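For Hepatotoxicity (choleostasis) in this document: human cholestatic liver injury, shown by histopathology or by peak ALT or AST elevation over alkaline phosphatase ratio below 2, value counts indexed literature reports.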
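For Hepatotoxicity (chronic liver disease) in this document: chronic liver injury confirmed by histopathology or persistently raised serum aminotransferase activity beyond 6 months, value given as the count of indexed literature references.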
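For Hepatotoxicity (cirrhosis) in this document: value is a count of indexed literature references reporting cirrhosis confirmed by histopathology.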
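For Hepatotoxicity (cytolytic) in this document: human cytolytic liver injury, shown by histopathology or by a ratio above 5 of peak ALT or AST elevation to alkaline phosphatase elevation, value counts indexed references.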
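For Hepatotoxicity (granulomatous hepatitis) in this document: value is a count of indexed literature references reporting granulomatous liver disease confirmed by histopathology.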
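For Hepatotoxicity (malignant tumour) in this document: malignant tumour confirmed by histopathology, value gives the count of indexed literature references reporting it.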
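For Hepatotoxicity (severe hepatitis) in this document: human clinical data: severe hepatitis, meaning potentially life-threatening liver failure or clinically observed cases, the value counts how many indexed literature references report it.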
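For Hepatotoxicity (steatosis) in this document: steatosis confirmed by histopathology, value is the count of indexed references.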

Compound | Hepatotoxicity (moderate) [1] [%] | Hepatotoxicity (acute) [2] | Hepatotoxicity (association with vascular disease) [3] | Hepatotoxicity (chronic liver disease) [4] | Hepatotoxicity (steatosis) [5] | Hepatotoxicity (acute) [6] [%] | Hepatotoxicity (severe hepatitis) [7] | Hepatotoxicity (cytolytic) [8] | Hepatotoxicity (benign tumour) [9] | Hepatotoxicity (choleostasis) [10] | Hepatotoxicity (moderate) [11] | Hepatotoxicity (cirrhosis) [12] | Hepatotoxicity (granulomatous hepatitis) [13] | Hepatotoxicity (malignant tumour) [14] | Hepatotoxicity (moderate) ([1]; Liver) [%] | Hepatotoxicity (acute) ([6]; Liver) [%] | Hepatotoxicity (severe hepatitis) ([7]; Liver) | Hepatotoxicity (cytolytic) ([8]; Liver) | Hepatotoxicity (choleostasis) ([10]; Liver) | Hepatotoxicity (granulomatous hepatitis) ([13]; Liver)
CN(C)CCOC1=Cc2ccccc2Sc2ccc(Cl)cc21 [ZOTEPINE] | 34.8 | 0 | 0 | 0 | 0 | 0 | 0 | 0 | 0 | 0 | 8 | 0 | 0 | 0 |  |  |  |  |  | 
Cc1cccc(C)c1OCC(=O)N[C@@H](Cc1ccccc1)[C@@H](O)C[C@H](Cc1ccccc1)NC(=O)[C@H](C(C)C)N1CCCNC1=O [LOPINAVIR] | 0 | 2 | 0 | 0 | 0 | 8 | 0 | 2 | 0 | 0 | 1 | 0 | 0 | 0 |  |  |  |  |  | 
CN(C)S(=O)(=O)c1ccc2c(c1)N(CCCN1CCC(CCO)CC1)c1ccccc1S2 [PIPOTIAZINE] | 1.9 | 0 | 0 | 0 | 0 | 0 | 0 | 0 | 0 | 0 | 1 | 0 | 0 | 0 |  |  |  |  |  | 
Cc1[nH]c(=O)c(C#N)cc1-c1ccncc1 [MILRINONE] | 2 | 0 | 0 | 0 | 0 | 0 | 0 | 0 | 0 | 0 | 2 | 0 | 0 | 0 |  |  |  |  |  | 
CC(C)CCOc1ccc(NC(=S)Nc2ccc(OCCC(C)C)cc2)cc1 [TIOCARLIDE] | 4.5 | 2 | 0 | 0 | 0 | 0.4 | 0 | 2 | 0 | 0 | 1 | 0 | 0 | 0 |  |  |  |  |  | 
CCn1cc(C(=O)O)c(=O)c2cnc(N3CCNCC3)nc21 [PIPEMIDIC ACID] | 0 | 0 | 0 | 0 | 0 | 0 | 0 | 0 | 0 | 0 | 1 | 0 | 0 | 0 |  |  |  |  |  | 
CC(C)(Oc1ccc(Cl)cc1)C(=O)NC(=O)NCN1CCOCC1 [PLAFIBRIDE] | 20 | 0 | 0 | 0 | 0 | 0 | 0 | 0 | 0 | 0 | 1 | 0 | 0 | 0 |  |  |  |  |  | 
Nc1nc(-c2ccccc2)c(Br)c(=O)[nH]1 [BROPIRIMINE] |  | 0 | 0 | 0 | 0 |  |  |  | 0 |  | 1 | 0 |  | 0 | 3.1 | 0 | 0 | 0 | 0 | 0
CC[C@H]1OC(=O)[C@H](C)C(=O)[C@H](C)[C@@H](O[C@@H]2O[C@H](C)C[C@H](N(C)C)[C@H]2O)[C@](C)(OC)C[C@@H](C)C(=O)[C@H](C)[C@H]2N(CCCCn3cnc(-c4cccnc4)c3)C(=O)O[C@]12C [TELITHROMYCIN] |  | 0 | 0 | 0 | 0 |  |  |  | 0 |  | 4 | 0 |  | 0 | 1.8 | 0 | 0 | 0 | 0 | 0
CC/C=C(\C(=O)N[C@@H]1C(=O)N2C(C(=O)OCOC(=O)C(C)(C)C)=C(COC(N)=O)CS[C@H]12)c1csc(N)n1 | 33.3 | 0 | 0 | 0 | 0 | 0 | 0 | 0 | 0 | 0 | 53 | 0 | 0 | 0 |  |  |  |  |  | 
CC1(C)CC(=O)N(CCCCN2CCN(c3ncccn3)CC2)C(=O)C1 [GEPIRONE] | 3.3 | 0 | 0 | 0 | 0 | 0 | 0 | 0 | 0 | 0 | 1 | 0 | 0 | 0 |  |  |  |  |  | 
COc1cc2nc(N3CCN(C(=O)C4COc5ccccc5O4)CC3)nc(N)c2cc1OC (stereo not given) [DOXAZOSIN] | 2.9 | 0 | 0 | 0 | 0 | 0 | 0 | 0 | 0 | 0 | 2 | 0 | 0 | 0 |  |  |  |  |  | 
CCOC(=O)[C@H](CCc1ccccc1)N[C@@H](C)C(=O)N1[C@H](C(=O)O)C[C@@H]2CCC[C@@H]21 | 1.3 | 1 | 0 | 0 | 0 | 0 | 0 | 0 | 0 | 0 | 3 | 0 | 0 | 0 |  |  |  |  |  | 
CSCC[C@H](N)C(=O)O [METHIONINE] |  | 2 | 0 | 0 | 0 |  |  |  | 0 |  | 1 | 0 |  | 0 | 0 | 0 | 0 | 1 | 0 | 0
CC(C)(Sc1cc(C(C)(C)C)c(O)c(C(C)(C)C)c1)Sc1cc(C(C)(C)C)c(O)c(C(C)(C)C)c1 [PROBUCOL] | 0 | 0 | 0 | 0 | 0 | 0 | 0 | 0 | 0 | 0 | 2 | 0 | 0 | 0 |  |  |  |  |  | 
